Tests used:
IP-TOR (TOR) = IP-TOR (TOR) (Arabidopsis thaliana, UniProt Q9FR53); assay: biochemical
SnRK1 (in IP-TOR) = biological target: T1, SnRK1 (in IP-TOR) (Arabidopsis thaliana, UniProt Q38997); assay: AMARA-peptide kinase assay with [γ-32P]ATP; assay type: biochemical; settings: IP-TOR sample; 200 μM AMARA peptide, 20 μM ATP, 10 mM MgCl2, pH 7.5, 30 °C
T1 sequence (Q38997 1-512): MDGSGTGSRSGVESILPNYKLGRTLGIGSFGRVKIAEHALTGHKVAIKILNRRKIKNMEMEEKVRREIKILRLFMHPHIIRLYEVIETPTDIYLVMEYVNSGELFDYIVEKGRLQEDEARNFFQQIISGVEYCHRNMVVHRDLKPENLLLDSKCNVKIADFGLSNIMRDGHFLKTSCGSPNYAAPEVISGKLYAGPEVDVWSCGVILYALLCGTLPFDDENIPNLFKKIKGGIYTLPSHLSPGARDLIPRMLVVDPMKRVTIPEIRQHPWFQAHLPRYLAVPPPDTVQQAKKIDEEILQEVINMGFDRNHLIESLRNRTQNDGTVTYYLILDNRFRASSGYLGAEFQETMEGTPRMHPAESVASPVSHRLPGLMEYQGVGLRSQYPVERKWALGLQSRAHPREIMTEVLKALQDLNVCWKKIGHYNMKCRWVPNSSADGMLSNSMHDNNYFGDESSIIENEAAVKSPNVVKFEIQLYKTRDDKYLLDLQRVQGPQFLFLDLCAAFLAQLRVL

Chain of IP-TOR (TOR) (Q9FR53 whole entry): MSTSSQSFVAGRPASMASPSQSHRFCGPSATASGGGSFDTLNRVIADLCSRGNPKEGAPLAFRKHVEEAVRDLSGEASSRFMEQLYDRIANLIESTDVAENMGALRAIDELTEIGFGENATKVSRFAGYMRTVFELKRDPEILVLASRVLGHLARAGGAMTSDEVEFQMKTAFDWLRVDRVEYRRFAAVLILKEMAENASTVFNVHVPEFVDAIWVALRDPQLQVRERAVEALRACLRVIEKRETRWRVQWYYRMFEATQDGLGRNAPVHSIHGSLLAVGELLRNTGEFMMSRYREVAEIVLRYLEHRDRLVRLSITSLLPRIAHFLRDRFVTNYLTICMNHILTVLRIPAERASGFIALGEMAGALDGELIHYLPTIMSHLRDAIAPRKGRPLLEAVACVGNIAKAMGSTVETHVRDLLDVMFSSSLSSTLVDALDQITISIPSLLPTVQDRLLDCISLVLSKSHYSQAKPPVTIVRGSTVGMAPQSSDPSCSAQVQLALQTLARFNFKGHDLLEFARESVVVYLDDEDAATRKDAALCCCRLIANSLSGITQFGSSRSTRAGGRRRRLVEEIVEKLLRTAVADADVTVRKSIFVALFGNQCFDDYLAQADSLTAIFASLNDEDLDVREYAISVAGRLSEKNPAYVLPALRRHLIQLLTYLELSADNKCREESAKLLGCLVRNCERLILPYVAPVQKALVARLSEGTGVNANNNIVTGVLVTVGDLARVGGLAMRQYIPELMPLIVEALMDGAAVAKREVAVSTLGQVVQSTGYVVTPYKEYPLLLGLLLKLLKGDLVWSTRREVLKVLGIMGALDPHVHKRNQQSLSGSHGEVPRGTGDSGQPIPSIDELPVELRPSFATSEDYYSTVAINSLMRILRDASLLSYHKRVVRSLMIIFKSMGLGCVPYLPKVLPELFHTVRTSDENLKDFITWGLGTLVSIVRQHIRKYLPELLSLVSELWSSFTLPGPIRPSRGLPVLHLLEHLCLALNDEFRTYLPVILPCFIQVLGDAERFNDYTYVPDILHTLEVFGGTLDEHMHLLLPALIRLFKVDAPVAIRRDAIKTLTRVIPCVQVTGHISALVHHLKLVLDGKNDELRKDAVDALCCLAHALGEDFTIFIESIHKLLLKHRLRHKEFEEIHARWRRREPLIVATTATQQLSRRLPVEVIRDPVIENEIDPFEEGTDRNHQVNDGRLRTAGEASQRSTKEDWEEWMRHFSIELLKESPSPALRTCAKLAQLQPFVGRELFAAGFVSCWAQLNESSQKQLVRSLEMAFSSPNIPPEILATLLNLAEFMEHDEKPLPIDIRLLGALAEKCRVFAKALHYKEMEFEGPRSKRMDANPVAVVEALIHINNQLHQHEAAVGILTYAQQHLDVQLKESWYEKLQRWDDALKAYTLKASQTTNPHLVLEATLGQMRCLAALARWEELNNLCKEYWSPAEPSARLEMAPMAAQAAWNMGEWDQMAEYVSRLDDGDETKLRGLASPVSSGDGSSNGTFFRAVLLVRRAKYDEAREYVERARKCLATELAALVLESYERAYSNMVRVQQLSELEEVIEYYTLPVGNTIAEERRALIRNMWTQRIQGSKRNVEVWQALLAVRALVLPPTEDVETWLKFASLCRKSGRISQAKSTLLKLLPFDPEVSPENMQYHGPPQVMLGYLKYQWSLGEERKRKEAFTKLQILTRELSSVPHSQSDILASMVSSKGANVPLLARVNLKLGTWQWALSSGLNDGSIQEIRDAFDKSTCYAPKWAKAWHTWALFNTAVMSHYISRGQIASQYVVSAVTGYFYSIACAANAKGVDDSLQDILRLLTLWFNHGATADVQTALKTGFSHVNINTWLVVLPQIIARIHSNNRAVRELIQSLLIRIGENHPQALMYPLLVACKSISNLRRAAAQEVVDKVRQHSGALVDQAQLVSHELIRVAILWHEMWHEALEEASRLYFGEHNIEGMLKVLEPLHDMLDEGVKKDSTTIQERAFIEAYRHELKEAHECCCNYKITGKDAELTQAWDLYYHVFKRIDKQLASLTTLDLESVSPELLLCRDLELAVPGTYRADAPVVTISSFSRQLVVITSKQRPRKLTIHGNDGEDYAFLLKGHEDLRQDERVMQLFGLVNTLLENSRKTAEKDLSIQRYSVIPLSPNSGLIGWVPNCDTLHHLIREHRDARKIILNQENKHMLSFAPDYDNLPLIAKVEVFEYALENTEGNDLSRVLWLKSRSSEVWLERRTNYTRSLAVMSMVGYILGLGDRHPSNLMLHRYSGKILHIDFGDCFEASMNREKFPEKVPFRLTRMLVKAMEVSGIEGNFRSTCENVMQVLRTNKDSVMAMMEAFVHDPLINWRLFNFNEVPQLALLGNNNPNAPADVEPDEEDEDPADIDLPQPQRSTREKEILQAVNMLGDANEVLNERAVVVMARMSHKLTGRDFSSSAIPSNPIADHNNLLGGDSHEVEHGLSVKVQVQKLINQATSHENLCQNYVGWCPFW

Compound: Nc1ncnc2c1ncn2[C@@H]1O[C@H](COP(=O)(O)OP(=O)(O)OP(=O)(O)O)[C@@H](O)[C@H]1O [ATP]
- Kd (IP-TOR (TOR)): 5.89 ± 0.83 µM

Compound: O=P(O)(O)OC[C@H]1O[C@H](O[C@H]2O[C@H](CO)[C@@H](O)[C@H](O)[C@H]2O)[C@H](O)[C@@H](O)[C@@H]1O [T6P, Trehalose 6-phosphate]
- % reduction of activity at 1 mM (SnRK1 (in IP-TOR)): > 50%

Source: doi:10.64898/2025.12.11.693803v1 (biorxiv, 2025)
